{"source": "paper PMC3428502", "about": "(Brain research, 2012)", "key": {"BSA [1]": {"molecular_target": "T1, BSA (Bos taurus, UniProt P02769)", "T1 sequence (P02769 25-607)": "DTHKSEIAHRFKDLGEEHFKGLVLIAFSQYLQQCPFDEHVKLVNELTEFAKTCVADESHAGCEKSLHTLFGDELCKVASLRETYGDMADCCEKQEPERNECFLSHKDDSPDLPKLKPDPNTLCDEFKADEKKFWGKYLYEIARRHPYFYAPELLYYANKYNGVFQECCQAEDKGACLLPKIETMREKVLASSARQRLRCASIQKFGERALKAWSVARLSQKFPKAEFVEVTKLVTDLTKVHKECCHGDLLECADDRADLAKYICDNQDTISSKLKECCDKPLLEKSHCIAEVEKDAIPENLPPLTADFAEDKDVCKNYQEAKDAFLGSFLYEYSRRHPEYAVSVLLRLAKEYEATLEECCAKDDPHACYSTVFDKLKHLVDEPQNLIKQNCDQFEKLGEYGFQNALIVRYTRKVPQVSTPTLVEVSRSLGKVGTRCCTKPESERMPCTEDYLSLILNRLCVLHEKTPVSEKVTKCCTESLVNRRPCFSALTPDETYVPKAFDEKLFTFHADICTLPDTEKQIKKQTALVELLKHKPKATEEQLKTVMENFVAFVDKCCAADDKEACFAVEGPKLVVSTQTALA", "experiment": "Relative protein reactivity with BSA", "conditions": "100 μM, BSA 1 mg/mL, 4 h, 37°C, compared to DOPAL"}, "PC6-3 cells [2]": {"test_system": "PC6-3 cells", "experiment": "MTT assay of mitochondrial function", "type": "cell-based", "conditions": "for change of mitochondrial function (MTT), in words: 5, 10, 25, 50 μM; for mitochondrial dysfunction: 50 μM"}, "[3]": {"molecular_target": "T2, tyrosine hydroxylase (TH) (Rattus norvegicus, UniProt P04177)", "T2 sequence (P04177 whole entry)": "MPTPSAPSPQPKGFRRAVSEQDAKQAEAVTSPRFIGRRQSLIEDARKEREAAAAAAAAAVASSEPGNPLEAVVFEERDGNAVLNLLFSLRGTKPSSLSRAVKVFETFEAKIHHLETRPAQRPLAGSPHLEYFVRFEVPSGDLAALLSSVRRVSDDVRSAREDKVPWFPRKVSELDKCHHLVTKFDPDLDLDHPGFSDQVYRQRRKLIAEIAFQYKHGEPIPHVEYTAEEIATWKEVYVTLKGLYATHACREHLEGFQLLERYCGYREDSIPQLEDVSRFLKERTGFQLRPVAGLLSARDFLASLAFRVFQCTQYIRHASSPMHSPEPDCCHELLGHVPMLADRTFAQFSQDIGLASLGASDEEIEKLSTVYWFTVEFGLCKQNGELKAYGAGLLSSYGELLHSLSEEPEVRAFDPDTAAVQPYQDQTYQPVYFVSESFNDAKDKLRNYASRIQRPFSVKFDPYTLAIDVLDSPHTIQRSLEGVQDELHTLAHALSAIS", "experiment": "TH activity in whole dopaminergic PC6-3 cells", "type": "cell-based", "conditions": "for TH inhibition in PC6-3 cells: 2 h; for inhibition at 20 µM: read-out: TH inhibition in PC6-3 cells"}, "PC6-3 cells [4]": {"test_system": "PC6-3 cells", "experiment": "Intracellular concentration in PC6-3 cells by HPLC", "type": "in vitro ADME, rat"}, "PC6-3 cells [5]": {"test_system": "PC6-3 cells", "experiment": "Flow cytometry with DHE for superoxide anion", "type": "cell-based, rat", "conditions": "10 μM, 1 h incubation, vs control cells"}, "PC6-3 cells [6]": {"test_system": "PC6-3 cells", "experiment": "Flow cytometry with DCF-DA for hydrogen peroxide", "type": "cell-based, rat", "conditions": "5 and 10 μM, 1 h, vs control cells"}, "[7]": {"molecular_target": "T2, tyrosine hydroxylase (TH)", "conditions": "1.0 μM; modified from previously published results; ref Mexas et al., 2011; cited from earlier work"}, "BSA [8]": {"molecular_target": "T1, BSA", "conditions": "compared to DOPAL; ref Rees et al., 2009; cited from earlier work"}, "[9]": {"molecular_target": "T2, tyrosine hydroxylase (TH)", "experiment": "TH activity in PC6-3 cell lysate", "type": "biochemical", "conditions": "read-out: inhibition of L-DOPA production in cell lysate"}, "[10]": {"conditions": "20 μM placed exogenously on PC6-3 cells"}}, "note": "“Also recorded” adds a separate entry of the source."}
{"compound": "N#CCc1ccc(O)c(O)c1", "note": "[DHPAN, 3,4-Dihydroxyphenylacetonitrile]", "values": [{"measurement": "Relative protein reactivity (NBT staining of BSA)", "setting": "BSA [1]", "result": "no significant staining by NBT"}, {"measurement": "change of mitochondrial function (MTT), in words", "setting": "PC6-3 cells [2]; 2 h, vs control cells", "result": "no significant loss of mitochondrial viability; also recorded: no changes to mitochondrial function; also recorded: no significant toxicity"}, {"measurement": "TH inhibition in PC6-3 cells", "setting": "[3]; 20 μM final concentration", "result": "no significant TH inhibition"}]}
{"compound": "O=CCc1ccc(O)c(O)c1", "note": "[DOPAL, 3,4-dihydroxyphenylacetaldehyde, reference compound]", "values": [{"measurement": "TH inhibition in PC6-3 cells", "setting": "[3]; 5 μM placed exogenously, intracellular 4–5 μM", "result": "~ 60%"}, {"measurement": "decrease of DA concentration in PC6-3 cells", "setting": "[3]; DOPAL-treated cells vs control cells, data not shown", "result": "~ 40%"}, {"measurement": "intracellular concentration", "setting": "PC6-3 cells [4]; rat, 5 μM, pH 7.4", "result": "4 to 5", "unit": "µM"}, {"measurement": "superoxide anion production (DHE)", "setting": "PC6-3 cells [5]", "result": "significantly different from control cells"}, {"measurement": "hydrogen peroxide production (DCF-DA)", "setting": "PC6-3 cells [6]", "result": "significantly less hydrogen peroxide than controls cells"}, {"measurement": "TH inhibition in cell lysate", "setting": "[7]", "result": "~95", "unit": "%"}]}
{"compound": "COc1ccc(CC=O)cc1OC", "note": "[DMPAL, 3,4-Dimethoxyphenylacetaldehyde]", "values": [{"measurement": "change of mitochondrial function (MTT), in words", "setting": "PC6-3 cells [2]; 2 h, vs control cells", "result": "no significant loss of mitochondrial viability; also recorded: no changes to mitochondrial function; also recorded: no significant toxicity"}, {"measurement": "inhibition at 20 µM", "setting": "[3]", "result": "~40", "unit": "%"}, {"measurement": "intracellular concentration", "setting": "PC6-3 cells [4]; [10]", "result": "~ 9 μM"}, {"measurement": "times less protein reactivity than DOPAL", "setting": "BSA [8]", "result": 5, "unit": "times"}]}
{"compound": "O=CCc1ccccc1", "note": "[PAL, phenylacetaldehyde]", "values": [{"measurement": "loss of mitochondrial viability", "setting": "PC6-3 cells [2]; 10 μM, 2 h, vs control cells", "result": "~ 15%"}, {"measurement": "loss of mitochondrial viability", "setting": "PC6-3 cells [2]; 25 μM, vs controls", "result": "~ 15%"}, {"measurement": "mitochondrial dysfunction", "setting": "PC6-3 cells [2]; 2 h, vs control cells", "result": "~ 25%"}, {"measurement": "change of mitochondrial function (MTT), in words", "setting": "PC6-3 cells [2]; 2 h, vs control cells", "result": "some concentration-dependent dysfunction"}, {"measurement": "inhibition at 20 µM", "setting": "[9]", "result": "~50", "unit": "%"}, {"measurement": "inhibition at 20 µM", "setting": "[3]", "result": "~50", "unit": "%"}, {"measurement": "intracellular concentration", "setting": "PC6-3 cells [4]; [10]", "result": "9 to 12", "unit": "µM"}, {"measurement": "times less protein reactivity than DOPAL", "setting": "BSA [8]", "result": 10, "unit": "times"}]}
{"compound": "O=CCC=O", "note": "[MDA, Malondialdehyde, reference compound]", "values": [{"measurement": "effect on TH activity", "setting": "[3]; 5 μM, used to inhibit ALDH and AR, data not shown", "result": "does not inhibit or alter TH activity"}]}
{"compound": "COc1cc(CC=O)ccc1O", "note": "[MOPAL, 3-methoxy-4-hydroxyphenylacetaldehyde]", "values": [{"measurement": "mitochondrial dysfunction", "setting": "PC6-3 cells [2]; 2 h, vs control cells", "result": "~ 25%"}, {"measurement": "change of mitochondrial function (MTT), in words", "setting": "PC6-3 cells [2]; 2 h, vs control cells", "result": "some concentration-dependent dysfunction"}, {"measurement": "inhibition at 20 µM", "setting": "[9]", "result": "~50", "unit": "%"}, {"measurement": "inhibition at 20 µM", "setting": "[3]", "result": "~50", "unit": "%"}, {"measurement": "intracellular concentration", "setting": "PC6-3 cells [4]; rat, 20 μM, pH 7.4", "result": "9 to 12", "unit": "µM"}, {"measurement": "times less protein reactivity than DOPAL", "setting": "BSA [8]", "result": 5, "unit": "times"}]}
